Data from patent publication US5025015A, “Thioformamidines, and use as medicaments” (Pierre Fabre Medicament, priority 1988, dated 1991).

What was measured:
[1] = tested on: ulcers with acetyl salicylic acid; experiment: activity toward ulcers with acetyl salicylic acid quantified in accordance with the Pfeiffer scale, male rats; type: in vivo; conditions: orally, acute
gastric secretion = gastric secretion by ligature of the pylorus using Shay's technique, male Sprague-Dawley rats; type: in vivo; conditions: rat, intraduodenal route, 50 mg/kg, acute
Experimental: 1. […] Acute treatment by intraduodenal route in a dose of 50 mg/kg.

Compound	% Inhibition of the ulcer lesions ([1]; dose 40 mg/kg) [%]	% Variation: decrease of the volume secreted (gastric secretion) [%]	% Variation: increase of the intragastric pH (gastric secretion) [%]	% Inhibition of the ulcer lesions ([1]; dose 50 mg/kg) [%]
CNC(=NCCSCc1nc[nH]c1C)NC#N [Cimetidine, N-Cyano-N'-methyl-N''-[2-[[(5-methyl-1H-imidazol-4-yl)methyl]thio]ethyl]guanidine, reference compound]	46	47	90	
CN(C(=O)CSc1ncc[nH]1)c1ccc(Cl)cc1C(=O)c1ccccc1Cl [Product 7]	46	70	118	
CN(C(=O)CSC1=NCCN1)c1ccc(Cl)cc1Cc1ccccc1 [Product 12]	40			
CN(C(=O)CSc1ncc[nH]1)c1ccc(Cl)cc1C(=O)c1ccccc1 [Product 15]		50	181	35
CN(C(=O)CSC(=N)N)c1ccc(Cl)cc1C(=O)c1ccccc1Cl [Product 16]		79	153	32
N-methyl 2'-(orthochloro-α-hydroxybenzyl)-4'-chloro 2-[2-(Δ2-imidazolinyl)thio]acetanilide [Product 11]		76	267	
N-methyl 2-[2-(Δ2-imidazolinyl)thio]2'-benzoyl-4'-chloroacetanilide hydrochloride [Product 2]	34	76	158	
